Experimental data published in US8768431B2, “Systems and methods for tissue imaging” (The Regents of the University of Michigan, priority 2007, dated 2014).

Legend:
9L tumors [1] = experiment: fDM / diffusion MRI of intracerebral 9L tumors after BCNU; assay type: in vivo, rat; conditions: for group mean VR: ±SEM
Protocol: (§1) Intracranial Tumor Implantation. All animal works were carried out in the animal facility of the University of Michigan (Ann Arbor, Mich.) in accordance with federal, local, and institutional guidelines. Intracerebral brain tumors were implanted in male Fischer 344 rats (Charles River Breeding Laboratories, Wilmington, Mass.) weighing between 125 and 150 g. Animals were anesthesized by intraperitoneal administration of a ketamine (87 mg/kg)/xylazine (13 mg/kg) mixture. A small skin incision was made over the right hemisphere, and a 1-mm-diameter burr hole was drilled through the skull. A sterile suspension of 1×10^5 9L cells in 5 μl of serum-free medium was introduced through a 27-gauge needle inserted to a depth of 3 mm. Rats were allowed to recover after tilling the burr hole with bone wax and suturing the skin closed.
(§2) Chemotherapy. Thirty-three animals with 9L tumors were entered into the study. When in vivo tumor volumes had reached […] were divided into four groups. Group 1 received 0.1 ml of drug vehicle (10% ethanol) and was used as a control group (n=7). Groups 2 to 4 received 6.65 mg/kg BCNU (n=7), 13.3 mg/kg BCNU (n=11), and 26.6 mg/kg BCNU (n=8), respectively, diluted in 10% ethanol. All treatments were administered by a single intraperitoneal injection on day 0. T2-weighted (T2, MRI transverse relaxation time) and diffusion MRI were performed every other day posttherapy to measure volumetric and cell density changes, respectively. Animal survival data were also obtained for all groups.
(§3) Diffusion MRI. Maps of tumor ADC values were acquired every other day up to 14 days posttherapy using a previously described method (see, e.g., Chenevert T L, et al., J Natl Cancer Inst. 2000; 92:2029-2036; herein incorporated by reference in its entirety). Briefly, a trace diffusion-weighted multislice spin echo sequence (with motion compensation and navigator echo) was used to acquire 13 slices with two different diffusion weightings [b1=100 sec/mm^2; b2=1248 sec/mm^2; image slice thickness=1 mm; image matrix=128×128 (0-256); field of view=30×30 mm; echo time=60 milliseconds]. During all MRI procedures, the animals were anesthesized with 1.5% isoflurane, and body temperature was maintained at 37° C. using a heated water-recirculating pad. The images acquired with b1 were essentially T2-weighted images, and these were used to segment the tumor from the normal brain for volumetric analysis using an “in-house” region drawing tool developed in MATLAB (Natick, Mass.).
Image Registration and fDM. An important part of fDM analysis is the registration of parametric ADC maps acquired posttherapy to baseline ADC maps acquired before treatment. Image registration was performed using an automated linear affine coregistration algorithm (MIAMI Fuse; University of Michigan, Ann Arbor, Mich.) to maximize mutual information between the two temporally distinct three-dimensional data sets (see, e.g., Meyer C R, et al., Med Image Anal. 1997; 1:195-206; herein incorporated by reference in its entirety). Following registration and tumor segmentation of voxels within the tumor both at baseline and on day 4, fDM statistics were calculated. Firstly, ADC values of voxels posttherapy were plotted as a function of baseline ADC values. These tumor voxels were then further segmented into three regions based on an upper threshold and a lower threshold of ADC change. That is, tumor voxels that had increased ADC above the upper threshold were region I (VR, red voxels), voxels that had decreased below the lower threshold were region 2 (VB, blue voxels), and all other voxels were region 3 (VG, green voxels). A comparison between treatment groups and the measurement of fDM dose dependence was accomplished to optimize the sensitivity of the thresholds used (±0.4×10^−9 m^2/sec). Normalized volumes were then calculated for each animal, and group statistics were calculated.

9L tumors [2] = experiment: Animal survival of rats with intracerebral 9L tumors; assay type: in vivo, rat; conditions: for median survival: rat 9L tumors, control 7 days
Protocol: as §1, §2
(§4) Tumor Cell Kill Calculations and Statistical Analysis. The quantification of tumor cell kill from serially volumetric imaging data for each animal was accomplished as previously described (see, e.g., Ross B D, et al., Proc Natl Acad Sci USA. 1998; 95:7012-7017; herein incorporated by reference in its entirety). In brief, log(cell kill)[…]log10[Vpre/Vpost], where V represents the tumor volume from MRI. Linear least squares analysis was used to measure the statistical significance of trends in the BCNU dose dependence of fDM volume, animal survival, and log cell kill, and in the correlation of fDM response with survival and cell kill. When two groups were compared, a one-tailed Student's /test was used. Both linear least squares and Student's t test were performed using Microsoft Excel (Microsoft, Redmond, Wash.). To compare the median survival of all four animal groups, a log rank test was performed using Prism (GraphPad Software, Inc., San Diego, Calif.).

9L tumor cells = experiment: MRI tumor volume and log cell kill of 9L tumors; assay type: in vivo, rat
Protocol: as §2, §3, §4

9L tumors [3] = experiment: Histopathology (H&E) of fDM regions of 9L tumors; assay type: in vivo, rat; conditions: 6.67 mg/kg BCNU; ×40 objective
Protocol: Histopathology. In a separate study consisting of eight animals, two animals per treatment group were imaged pretreatment and again at 6 to 7 days posttherapy. Following the second imaging session, animals were euthanized, and the brains were fixed in 10% paraformaldehyde. After 48 hours, fixed tissues were transferred to 70% ethanol and embedded in paraffin. Formalin-fixed paraffin-embedded specimens were serially sectioned and slide-mounted. Sections were stained with hematoxylin and eosin (H&E) and compared to fDMs.

PC3^Luc tumor cells = experiment: Bioluminescence imaging of PC3Luc metastatic prostate cancer model; assay type: in vivo, SCID mice; conditions: docetaxel 40 mg/kg/wk×3, n=9; controls rose continuously
Protocol: Cell Lines. PC3 cells were transfected with a luciferase-encoding pLazarus retroviral construct using Fugene 6 (Roche Applied Science, Indianapolis, Ind.) as per manufacturer's instructions. Wildtype PC3 cells were cultured in RPMI-1640 supplemented with 10% FBS whereas transfected cells (PC3^Luc were maintained in selection media supplemented with 200 μg/ml G418 (Invitrogen; Carlsbad, Calif.).
(§5) Mice. Male SCID mice (Charles River Laboratories, Wilmington, Mass.) were housed in specific pathogen free rooms at The University of Michigan AAALAC, International accredited facilities. For implantation of PC3^Luc cells, mice were anesthetized with 1.75% isotluorane/air anesthesia and 2×10^5 cells in 100 μl of sterile Dulbecco's PBS lacking Ca^+2and Mg^+2 (DPBS) were administered into the left ventricle of the heart.
Bioluminescence Detection. […] Bioluminescence studies were initiated prior to treatment for baseline values and performed throughout the experiment. For these studies, mice were anesthetized with a 2% isofluorane/air mixture and given a single i.p. dose of 150 mg/kg D-luciferin (Promega; Madison, Wis.) in normal saline. […] Results were analyzed using Living Image® software provided with the Xenogen imaging system. Signal intensity was quantified as the sum of all detected photon counts within a uniform region-of-interest (ROI) manually placed during data post processing.

[4] = test system: PC3^Luc metastatic bone lesions; experiment: fDM analysis of metastatic bone lesions of PC3Luc model; assay type: in vivo, SCID mice; conditions: for percentage of increased ADC (fDM), representative treated animal: docetaxel 40 mg/kg/wk×3
Protocol: as §5
(§6) Magnetic Resonance Imaging. […] For MRI examination, mice were anesthetized with a 2% […] and maintained at 37 C, using a heated water bed, inside a 9.4-T Varian MR scanner (120-mm clear horizontal bore, Varian, Palo Alto, Calif.) and a double-tuned volume radiofrequency coil. A trace diffusion-weighted multi-slice spin echo sequence was used to acquire 15 slices with two different diffusion weightings (b1=184 s/mm^2, =1106 s/mm^2, slice thickness=0.5 mm, image matrix64×128, field of view=15×15 mm; TE=40 ms, TR=3.5 s). The z-gadient first moment was zeroed to reduce the dominant source of motion artifact as well as a 32-point navigator echo was prepended to each phase-encode echo. The phase deviation of each navigator echo relative to their mean was subtracted from the respective image echoes prior to the phase-encode Fourier transform. Images were acquired prior to treatment and subsequently 2 times per week. The low b-factor images were essentially T2-weighted to allow tumor volume measurements. The tumor boundary was manually defined on each slice and then integrated across slices to provide a volume estimate.
Image Registration and fDM. An important part of fDM analysis is the registration of post-treatment ADC maps to baseline pretreatment ADC maps. Image registration was performed using an automated linear affine coregistration algorithm to maximize mutual information between the two temporally distinct three-dimensional data sets (see, e.g., Meyer C R, et al., Med Image Anal 1997; 1:195-206; herein incorporated by reference in its entirety). Following registration and segmentation of voxels within the tumor both at baseline and on day 4, fDM statistics were calculated (I-Response™, Cedara Software, Mississauga, Ontario). Firstly, ADC values of voxels post therapy were plotted as a function of baseline ADC values. These voxels were then further segmented into three regions based on an upper and lower threshold of ADC change. Tumor voxels with an ADC increase above the upper threshold were depicted as red, whereas voxels that had decreased below the lower threshold were depicted as blue.

[5] = test system: PC3^Luc metastatic bone lesions; experiment: MRI tumor volume of PC3Luc bone lesions; assay type: in vivo, SCID mice
Excerpt: as §6

[6] = 6.65 mg/kg BCNU, day 4 posttreatment
[7] = 26.6 mg/kg BCNU, day 4 posttreatment
[8] = p<0.05, treated n=7 vs control n=5

SMILES: O=NN(CCCl)C(=O)NCCCl [BCNU]
- mean ADC change (9L tumors [1]; 6.65 mg/kg BCNU, day 4, control −0.8±2.7%): 10.7±2.2%
- group mean VR (9L tumors [1]; 6.65 mg/kg BCNU, day 4, control 3.9±1.7): 10.6±2.8%
- VB (tumor volume with decreased ADC), representative animal (9L tumors [1]; [6]): 2.6%
- VR (tumor volume with increased ADC), representative animal (9L tumors [1]; [6]): 7.7%
- mean ADC change (ΔADC) (9L tumors [1]; 13.3 mg/kg BCNU, day 4): 22.9±5.3%
- group mean VR (9L tumors [1]; 13.3 mg/kg BCNU, day 4): 28.7±8.0%
- VR (tumor volume with increased ADC), representative animal (9L tumors [1]; 13.3 mg/kg BCNU, day 4 posttreatment): 30%
- mean ADC change (9L tumors [1]; 26.6 mg/kg BCNU, day 4): 49.0±9.7%
- group mean VR (9L tumors [1]; 26.6 mg/kg BCNU, day 4): 62.0 ±9.0%
- VB (tumor volume with decreased ADC), representative animal (9L tumors [1]; [7]): 0.3%
- VR (tumor volume with increased ADC), representative animal (9L tumors [1]; [7]): 90.6%
- best-fit gradient of VR as a function of drug dose (9L tumors [1]; day 4 posttreatment, threshold ±0.4×10^−9 m^2/sec, P=5.8×10^−6): 2.30 ± 0.40 kg/mg
- median survival (9L tumors [2]; 6.65 mg/kg BCNU single i.p.): 13 days posttherapy
- median survival (9L tumors [2]; 13.3 mg/kg BCNU single i.p.): 23.5 days posttherapy
- median survival (9L tumors [2]; 26.6 mg/kg BCNU single i.p.): 35.5 days posttherapy
- animal survival relative to the control group (9L tumors [2]; 6.65-26.6 mg/kg BCNU, log rank P<0.05): dose-dependent increase in animal survival
- log cell kill (9L tumor cells; 6.65 mg/kg BCNU, control −0.09±0.04): −0.25±0.08
- log cell kill (9L tumor cells; 13.3 mg/kg BCNU): 1.28±0.18
- log cell kill (9L tumor cells; 26.6 mg/kg BCNU): 3.22±0.51
- gradient of least squares fit, normalized tumor volume as a function of dose (9L tumor cells; 4 days posttreatment, 0-26.6 mg/kg BCNU, P=0.004): −4.0±1.3
- active mitoses in low-diffusion (VB) region (9L tumors [3]): 153 mitoses in 10 high-power fields
- mitoses in VR region (9L tumors [3]): 96 mitoses in 10 high-power fields

SMILES: CC(=O)O[C@@]12CO[C@@H]1C[C@H](O)[C@@]1(C)C(=O)[C@H](O)C3=C(C)[C@@H](OC(=O)[C@H](O)[C@@H](NC(=O)OC(C)(C)C)c4ccccc4)C[C@@](O)([C@@H](OC(=O)c4ccccc4)[C@H]21)C3(C)C [docetaxel]
- mean photon counts (luciferase activity) (PC3^Luc tumor cells): remained stable throughout the experiment
- percentage of increased ADC (fDM), representative treated animal ([4]; day 7 post initiation): 4.0%
- percentage of increased ADC (fDM), representative treated animal ([4]; day 14 post initiation): 30.0%
- percentage of increased ADC (fDM), representative treated animal ([4]; day 18 post initiation): 53.7%
- time at which fDM values differ significantly from control [4, 8]: 7 days post-treatment
- mean changes in tumor diffusion by fDM ([4]; three week treatment period, treated n=7): progressively increasing fDM diffusion changes
- MRI tumor volumes, outcome of therapy ([5]; control tumors kept growing, treated tumors did not): efficacious
- time at which tumor volumes differ significantly from control [5, 8]: 11 day post-treatment initiation
